# Assay results as given in patent publication US20140328898A1, “Nano-Liposomal Formulations and Methods of Use” (CHILDREN'S NATIONAL MEDICAL CENTER, priority 2013, published 2014).
# Assay: Size-dependent transdermal penetration of PEGylated and anionic liposomes through the stratum corneum of porcine ear tissue (Example 2), DiI fluorescence intensity profiles
# Assay type: in vitro ADME, Yorkshire piglets
# Details: free dye applied to the skin in liposome-free buffer (control)
# Excerpt: For PEGylated liposomes, dimyristoylphosphatidylcholine (DMPC), cholesterol, and dipalmitoylphosphatidylethanolamine-PEG 2000 (PEG2000-PE) (Avanti Polar Lipids Inc., Alabaster, Ala.) were combined in chloroform (Mallinckrodt Baker Inc., Phillipsburg, N.J.) at a molar ratio of 70:25:5. For anionic liposomes, DMPC, cholesterol (both from Avanti), and anionic surfactant dihexadecyl phosphate (DCP) (Sigma Aldrich, St. Louis, Mo.) were mixed in chloroform (Mallinckrodt Baker Inc.) at a molar ratio of 50:40:10. The lipid mixtures were prepared in glass scintillation vials then stored in a vacuum desiccator for at least 24 hours for complete solvent removal. The desiccated lipid mixtures were re-dissolved in anhydrous ethanol (Sigma Aldrich) for a total lipid concentration of 40 mM. To assist in fluorescent imaging, a lipophilic membrane dye, 1,1′-dioctadecyl-3,3,3′,3′-tetramethylindocarbocyanine perchlorate (DiI-C18; DiI) (Life Technologies, Carlsbad, Calif.) was included into the lipid mixtures (1 wt %). […]
# The microfluidic-generated liposomes contained lipophilic DiI in their bilayers and hydrophilic SF in their cores to enable fluorescence imaging of tissue penetration depth. […]
smiles,measurement,value
"O=C([O-])c1ccccc1-c1c2ccc(=O)cc-2oc2cc([O-])ccc12.[Na+].[Na+] [free SF dye, sodium fluorescein salt]",SF dye penetration beyond the SC (in words),no penetration beyond the SC was observed
